Data from patent US20190390169A1, “PANCREATIC PROGENITOR CELL PRODUCTION METHOD” (Kyoto University, priority 2017, published 2019).
Counter-ions that a name gives are not always drawn.

Legend:
[1] = test system: Ff-WJ-18 cells (human iPS cells); assay: Induction of differentiation of iPS cells into pancreatic progenitor cells at stage 4, flow cytometry; type: cell-based; conditions: stage 4, 4 days, 0.00001 μM to 1 μM, medium with or without ROCK inhibitor Y-27632, vs negative control (FIG. 2, FIG. 3)
Description: The human iPS cells used were Ff-WJ-18 cells (Kyoto University). The Ff-WJ-18 cells maintenance-cultured according to Reference Example 1 were induced to differentiate into pancreatic progenitor cells by the following procedures. Culture was performed at 37° C. under 5% CO2 in all cases, and the culture container used was coated with iMatrix-511(TM) (Nippi).
Ff-WJ-18 cells (70,000 cells/9.6 cm^2) were seeded to RPMI1640 medium containing 1% penicillin/streptomycin, 1% B27, activin A (100 ng/mL), CHIR99021 (3 μM), and Y-27632 (10 μM), and cultured for 1 day. The cells were further cultured for 2 days in RPMI1640 medium containing 1% penicillin/streptomycin, 1% B27, and activin A (100 ng/mL) with the medium replaced with a fresh one every day.
The resulting cells were cultured for 4 days using instead iMEM medium containing 1% penicillin/streptomycin, 1% B27, and KGF (50 ng/mL). […]
The cells after the culture at stage 4 were collected, and the proportion of NKX6.1-positive/PDX-1-positive cells was determined by flow cytometry. Likewise, the proportion of the cells was determined as to iPS cells and cells before the culture at stage 4 (s3d2: stage 3, day 2). […]
Also, an effect was compared between a factor having CDK1/2-inhibiting activity and a factor having CDK8/19-inhibiting activity by a similar method. […] The proportion of NKX6.1-positive/PDX-1-positive cells was determined.

CDK8/CycC = target: T1, CDK8/CycC (Homo sapiens, UniProt P49336); assay: CDK8-inhibiting activity (Kinase Tracer-236 / Eu-anti-GST fluorescence assay); type: binding; conditions: read-out: rate of inhibition of CDK8; for inhibition at 1 µM: 1 μM test compound; for inhibition at 10 µM: 10 μM test compound
T1 construct: purchased Carna Biosciences
Description: (§1) Test compounds were evaluated for their CDK8-inhibiting activity and CDK19-inhibiting activity by the following method.
(§2) Each test compound dissolved in dimethyl sulfoxide was diluted with an assay buffer (25 mM HEPES, 10 mM MgCl2, 2 mM DL-dithiothreitol, 0.01% Tween-20) to obtain a primary dilution having a DMSO concentration of 3%. The primary dilution was dispensed at 2 μL/well to a 384-well plate. Then, a mixed solution of Eu^3+ Cryptate conjugated mouse monoclonal antibody anti-glutathione S-transferase (CisBio) diluted 267-fold with an assay buffer and 60 nM Kinase Tracer-236 (Life Technologies) was added at 2 μL/well. After the addition, a kinase solution (84 ng/mL CDK8/CycC (Carna Biosciences) diluted with an assay buffer was used for CDK8-inhibiting activity measurement, and 87 ng/mL CDC2L6/CycC (Carna Biosciences) diluted with an assay buffer was used for CDK19-inhibiting activity measurement) was further added at 2 μL/well. After the addition, the plate was left standing at room temperature for 1 hour, followed by the measurement of fluorescence intensity (excitation wavelength: 320 nm, fluorescence wavelength: 615 nm, 665 nm, delay time: 50 μsec) using a plate reader EnVision (Perkin Elmer).
(§3) When the fluorescence intensity of a reaction solution under compound non-addition conditions was used as a control and the fluorescence intensity of a reaction solution under 10 μM control compound addition conditions was used as a blank, the rate of inhibition of CDK8 or CDK19 by the test compound can be calculated according to the following expression:
(§4) Rate of inhibition (%)=(1−(Fluorescence intensity of the test compound−Blank)/(Control−Blank))×100
(§5) The control compound used was commercially available 4-(4-(2,3-dihydro-1,4-benzodioxin-6-yl)-1H-pyrazol-3-yl)benzene-1,3-diol.

CDC2L6/CycC (CDK19) = target: T2, CDC2L6/CycC (CDK19) (Homo sapiens, UniProt Q9BWU1); assay: CDK19-inhibiting activity (Kinase Tracer-236 / Eu-anti-GST fluorescence assay); type: binding; conditions: read-out: rate of inhibition of CDK19; for inhibition at 1 µM: 1 μM test compound; for inhibition at 10 µM: 10 μM test compound
T2 construct: purchased Carna Biosciences
Description: as §1, §2, §3, §4, §5

T2 sequence (Q9BWU1 whole entry): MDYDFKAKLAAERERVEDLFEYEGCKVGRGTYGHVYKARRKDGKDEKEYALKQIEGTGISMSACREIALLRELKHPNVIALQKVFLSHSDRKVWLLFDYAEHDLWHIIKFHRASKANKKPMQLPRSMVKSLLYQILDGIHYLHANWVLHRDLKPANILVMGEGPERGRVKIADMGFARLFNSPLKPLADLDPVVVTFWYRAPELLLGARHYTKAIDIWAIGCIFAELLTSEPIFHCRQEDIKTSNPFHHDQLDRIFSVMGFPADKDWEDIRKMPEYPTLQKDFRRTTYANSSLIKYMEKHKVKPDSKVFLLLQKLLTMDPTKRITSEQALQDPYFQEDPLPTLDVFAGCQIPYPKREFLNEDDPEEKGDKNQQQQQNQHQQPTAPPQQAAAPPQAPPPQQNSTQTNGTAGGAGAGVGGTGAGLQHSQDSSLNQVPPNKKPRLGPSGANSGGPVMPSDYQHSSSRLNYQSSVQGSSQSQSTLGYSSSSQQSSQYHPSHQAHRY
T2 sequence (P24863 whole entry partner): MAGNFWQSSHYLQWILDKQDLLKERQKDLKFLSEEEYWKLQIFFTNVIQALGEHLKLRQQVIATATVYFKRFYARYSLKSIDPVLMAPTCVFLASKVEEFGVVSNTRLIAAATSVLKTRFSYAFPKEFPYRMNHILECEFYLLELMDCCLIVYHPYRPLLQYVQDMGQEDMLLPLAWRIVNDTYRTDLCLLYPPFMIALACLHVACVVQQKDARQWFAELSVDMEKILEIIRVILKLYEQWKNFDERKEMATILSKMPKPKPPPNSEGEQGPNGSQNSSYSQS
T1 sequence (P49336 whole entry): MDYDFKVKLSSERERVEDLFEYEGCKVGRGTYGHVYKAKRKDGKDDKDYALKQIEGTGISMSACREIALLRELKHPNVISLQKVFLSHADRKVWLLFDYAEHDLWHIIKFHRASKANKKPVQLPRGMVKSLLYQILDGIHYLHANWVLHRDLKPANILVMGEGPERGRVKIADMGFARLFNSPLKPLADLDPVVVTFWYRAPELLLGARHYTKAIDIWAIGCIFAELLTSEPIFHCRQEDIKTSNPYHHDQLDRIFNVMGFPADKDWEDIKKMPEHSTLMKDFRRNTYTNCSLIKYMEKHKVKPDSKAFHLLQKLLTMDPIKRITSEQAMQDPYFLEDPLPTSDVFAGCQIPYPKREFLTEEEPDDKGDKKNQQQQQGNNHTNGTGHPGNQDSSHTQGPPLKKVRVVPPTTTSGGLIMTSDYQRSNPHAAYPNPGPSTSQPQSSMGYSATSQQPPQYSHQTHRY
T1 sequence (P24863 whole entry partner): as the sequence (P24863 whole entry partner) above

inhibition at 1 µM (CDK8/CycC) [%] | inhibition at 10 µM (CDK8/CycC) [%] | inhibition at 1 µM (CDC2L6/CycC (CDK19)) [%] | inhibition at 10 µM (CDC2L6/CycC (CDK19)) [%] | SMILES | proportion of NKX6.1-positive/PDX-1-positive cells [1]
101 | 105 | 101 | 104 | NC(=O)c1ccc(-c2c[nH]c3ncccc23)cc1NCc1ccccc1 [Compound 3, 2-(Benzylamino)-4-(1H-pyrrolo[2,3-b]pyridin-3-yl)benzamide] | –
91 | 102 | 94 | 101 | c1ccc(COc2cccc(-c3c[nH]c4ncccc34)c2)cc1 [Compound 4, 3-(3-(Benzyloxy)phenyl)-1H-pyrrolo[2,3-b]pyridine] | –
103 | 102 | 100 | 100 | CCCCNC(=O)c1ccc2cncc(-c3ccc(OC)cc3)c2n1 [Compound 6, N-Butyl-8-(4-methoxyphenyl)-1,6-naphthyridine-2-carboxamide trifluoroacetate] | –
92 | 104 | 83 | 100 | CCCN(CCC)C(=O)c1ccc2cncc(-c3ccc(C)cc3)c2n1 [Compound 7, 8-(4-Methylphenyl)-N,N-dipropyl-1,6-naphthyridine-2-carboxamide trifluoroacetate] | –

Second part, the molecule before the results:

SMILES | inhibition at 1 µM (CDK8/CycC) [%] | inhibition at 10 µM (CDK8/CycC) [%] | inhibition at 1 µM (CDC2L6/CycC (CDK19)) [%] | inhibition at 10 µM (CDC2L6/CycC (CDK19)) [%] | proportion of NKX6.1-positive/PDX-1-positive cells [1]
Nc1nc(Nc2ccc(S(N)(=O)=O)cc2)nn1C(=S)Nc1c(F)cccc1F [CAS443798-55-8] | – | – | – | – | efficient induction of differentiation into pancreatic progenitor cells was not observed
Cn1ncc2c1-c1c(Oc3ccc(F)cc3F)sc(C(N)=O)c1CC2 [Compound 1, 8-(2,4-Difluorophenoxy)-1-methyl-4,5-dihydro-1H-thieno[3,4-g]indazole-6-carboxamide] | 97 | 94 | 99 | 96 | –
O=C1Nc2ccccc2N(S(=O)(=O)c2ccc(F)cc2)C1CCSc1ccc2nccn2n1 (centres unmarked) [Compound 2, 4-((4-Fluorophenyl)sulfonyl)-3-(2-(imidazo[1,2-b]pyridazin-6-ylsulfanyl)ethyl)-3,4-dihydroquinoxalin-2(1H)-one] | 100 | 100 | 102 | 103 | –
Oc1ccc(-c2n[nH]cc2-c2ccc3c(c2)OCCO3)c(O)c1 [Compound 5, 4-(4-(2,3-Dihydro-1,4-benzodioxin-6-yl)-1H-pyrazol-3-yl)benzene-1,3-diol, reference compound] | 87 | 100 | 86 | 100 | –
